Laboratory results taken from patent US20200163882A1, “Solid Pharmaceutical Compositions Of Androgen Receptor Antagonists” (Lek Pharmaceuticals d.d., priority 2014, published 2020).

Tests used:
[1] = cited from earlier work; for Solubility in water: water between pH 1 and 11
[2] = physiologic pH range; cited from earlier work
[3] = first clinical trials, similar daily doses; cited from earlier work
[4] = Solubility of Enzalutamide in surfactants; format: physicochemical
Procedure: In the first reference test formulation, 12 mg of Enzalutamide was completely dissolved in 0.27 ml of Labrasol. In second reference test formulations 12 mg of Enzalutamide is completely dissolved in 0.27 ml of Tween 80. In third reference test formulation, 12 mg of Enzalutamide is completely dissolved in 0.27 ml of Tween 80 and 0.15 mg of HPMC has been added. It should be noted that solubility of Enzalutamide is about the same in Tween and in Labrasol ([…] of Enzalutamide per 1 ml of either Tween 80 or Labrasol). The three test formulations were dissolved in 15 ml of pH 6.8 phosphate buffer and Enzalutamide concentration was measured at time points from 10 to 360 minutes.

Solubility of Enzalutamide in Labrasol ([4]; Labrasol)	Solubility of Enzalutamide in Tween 80 ([4]; Tween 80)	Compound	Solubility in N-methyl-2-pyrrolidone (NMP) [1]	Solubility in absolute ethanol [1]	Solubility in acetone [1]	Solubility in water [1]	Ionisation state [2]	Effectiveness versus Enzalutamide [3]
–	–	CNC(=O)c1ccc(N2C(=S)N(c3cnc(C#N)c(C(F)(F)F)c3)C(=O)C23CCC3)cc1F [ARN-509, 4-[7-[6-Cyano-5-(trifluoromethyl)pyridin-3-yl]-8-oxo-6-thioxo-5,7-diazaspiro[3.4]octan-5-yl]-2-fluoro-N-methylbenzamide]	soluble	sparingly soluble	soluble	practically insoluble	remain unionized	more effective than Enzalutamide
about 36 mg per 1 ml	about 36 mg per 1 ml	CNC(=O)c1ccc(N2C(=S)N(c3ccc(C#N)c(C(F)(F)F)c3)C(=O)C2(C)C)cc1F [Enzalutamide, 4-{3-[4-Cyano-3-(trifluoromethyl)phenyl]-5,5-dimethyl-4-oxo-2-thioxoimidazolidin-1-yl}-2-fluoro-N-methylbenzamide]	soluble	sparingly soluble	soluble	practically insoluble	remain unionized	–
